PubChem BioAssay AID2423 (Broad Institute, 2010)
pEC50: −log10 of the molar value. Inconclusive results are not listed. Active and inactive are the calls of the source. How the calls were made is not given here.

Tested on: C. albicans CaCi-8 + fluconazole, Alamar Blue growth, 48 h
Test: resistant C. albicans growth inhibition with fluconazole, dose response, CaCi-8 strain, Alamar Blue fluorescence (AID 2423)

SMILES | EC50 | pEC50
CC(=O)Nc1ccc(N2CCCCC2)c(C(=O)Nc2cccc(C)c2)c1 | > 16 µM (inactive) | 
CC(c1ccccc1)N1CCn2c(nc3cc(NS(C)(=O)=O)ccc32)C1 (stereo not drawn) | > 16 µM (inactive) | 
N#Cc1c(Cl)nsc1NC(=O)c1ccccc1 | > 16 µM (inactive) | 
CNC(=O)COC(=O)c1c2c(nc3ccccc13)CCC2 | > 16 µM (inactive) | 
O=C(Nc1sc2c(c1C(=O)c1ccc(Cl)cc1)CCCC2)c1cccnc1 |  | 6.21
COCc1cc(CN2CCN(C)CC2)c(O)c2ncccc12 |  | 5.18
CN1CCN(C(c2ccc(Br)cc2)c2cc(Cl)c3cccnc3c2O)CC1 (stereo not drawn) |  | 6.20
Cc1ccc(NS(=O)(=O)c2ccc(CCC(=O)NCCO)cc2)cc1 | > 15 µM (inactive) | 
COc1cccc(/C=N/NC(=O)c2cc(-c3cccn3C)n[nH]2)c1O |  | 5.25
CC1(O)CC(c2ccc(Cl)cc2)=NN1C(=O)c1ccc([N+](=O)[O-])cc1 (stereo not drawn) |  | 5.49
O=C(/C=C/c1ccco1)Nc1cccc(-c2nc3ccccc3[nH]2)c1 |  | 5.90
CCN(CC)S(=O)(=O)c1cc(OC)ccc1N=Nc1ccc(O)c2ncccc12 |  | 5.81
O=C(Nc1nnc(-c2ccccc2)o1)c1cc(-c2cccs2)nc2ccccc12 |  | 6.05
COc1ccc(C(=O)Oc2c(CN3CCOCC3)cc(Cl)c3cccnc23)cc1 |  | 5.04
CCCCC(=O)NC(c1ccc(N(CC)CC)cc1)c1ccc2cccnc2c1O (stereo not drawn) |  | 6.33
CN(C)c1ccc(-c2n(C)c3ccccc3[n+]2C)cc1 |  | 5.41
Cc1ccc(C(=O)N/N=C/c2c(O)ccc3ccccc23)cn1 |  | 6.02
CCCCNC(=O)/C(=C\c1ccc([N+](=O)[O-])o1)NC(=O)c1ccccc1 | > 15 µM (inactive) | 
O=C(c1cc(COc2cccc(C(F)(F)F)c2)on1)N1CCC(c2ccncc2)CC1 |  | 5.59
CS/C(=C\[N+](=O)[O-])Nc1ccc(Cl)cc1 |  | 5.40
COc1ccc(-[n+]2c(-c3ccccc3)cc(-c3ccc(C)cc3)cc2-c2ccccc2)cc1 | > 15 µM (inactive) | 
CCSc1ccc2cc(OC)ccc2[n+]1CC |  | 5.33

SMILES | EC50 | pEC50
S=C(NCCN1CCOCC1)NC1CCCC1 | > 15 µM (inactive) | 
Oc1ccc(O)c2c1C1c3ccccc3C2c2ccccc21 |  | 5.69
COC(=O)Cn1nc(-c2ccccc2)c2ccccc21 |  | 5.64
COc1ccc(N(CC(=O)Nc2ccccc2C(N)=O)S(=O)(=O)c2ccc(C)c([N+](=O)[O-])c2)cc1 |  | 6.50
Cc1cc(N/N=C/c2c(O)ccc3ccccc23)nc(-c2ccccc2O)n1 |  | 6.88
COc1ccc(C2C(C(=O)c3cccs3)=C(O)C(=O)N2c2nncs2)cc1 (stereo not drawn) |  | 4.82
Oc1ccc(N=Nc2ccc3c(c2)OCCO3)c2cccnc12 |  | 6.09
CN1CCN(C(c2cccnc2)c2ccc3cccnc3c2O)CC1 (stereo not drawn) | > 16 µM (inactive) | 
COCCNC(=O)CCCn1c(=O)c2cc(OC)c(OC)cc2n(CC(=O)NCCC2=CCCCC2)c1=O |  | 5.27
CC1CCCCN1S(=O)(=O)c1ccc(NC(=O)c2cccc(-n3cnnn3)c2)cc1 (stereo not drawn) | > 15 µM (inactive) | 
O=C(N/N=C/c1c(O)ccc2ccccc12)c1cccnc1 |  | 5.84
O=C(Nc1nc2ccc(SC(F)F)cc2s1)c1ccc(NS(=O)(=O)c2ccc(F)c(F)c2)cc1 |  | 5.78
CC(C)(C)c1ccc(SCC(N)=O)cc1 | > 15 µM (inactive) | 
O=Nc1c(O)n(Cc2ccc(Cl)c(Cl)c2)c2ccccc12 |  | 5.23
O=C(/C=C/c1ccco1)Oc1cc(Br)cc(/C=N/NC(=O)c2ccccc2O)c1 |  | 5.48
COc1ccc(CCn2c(C)cc3c(c2=O)C(c2ccc4c(c2)OCO4)C(C#N)=C(N)O3)cc1OC (stereo not drawn) | > 16 µM (inactive) | 
CCOc1cc(/C=C2\SC(=S)N(NS(=O)(=O)c3ccccc3)C2=O)ccc1O |  | 5.69
O=C(Nc1ccccc1N1CCOCC1)c1cc(F)cc(F)c1 |  | 5.58
O=C(CSc1nnc(-c2ccco2)n1Cc1ccccc1)OC1CCCCC1 | > 15 µM (inactive) | 
COc1ccc(-c2cc(-c3cc(F)ccc3O)[nH]n2)cc1OC |  | 4.86
COc1ccc(C(C(=O)NC2CCCCC2)N(Cc2cccs2)C(=O)Cc2c[nH]c3ccccc23)cc1 (stereo not drawn) | > 15 µM (inactive) | 
